What follows are compounds tested on anaesthetized naïve female rats (assay: Cystometry on anaesthetized naïve rats (suppression of rhythmic spontaneous bladder contractions)). Settings: i.v., cumulative administration; mean of the lowest dose of 3 independent experiments at which contractions are first absent over a period of 10 min.
Format: in vivo, rat
Description: The cystometric investigation of naïve female rats was carried out by the method of Kimura et al. (Kimura et al., 1996, Int. J. Urol. 3:218-227). The abdomen of anaesthetized ventilated rats is opened up and the ureter is tied off. The urine is drained from the kidneys. A catheter is inserted into the bladder and fixed. […] After stable starting values are reached, the test substance is administered i.v. in a cumulative manner. An influence on bladder function manifests itself via suppression of spontaneous contractions. The absence of contractions over a period of 10 min is used as an indication of suppression.
A suppression of spontaneous contractions in the rats was measurable with all the substances tested. Table II indicates the mean of the lowest dose of 3 independent experiments at which for the first time contractions are absent over a period of 10 min.

SMILES	Lowest dose effective for suppression of contraction
CCOC(=O)[C@]1(c2ccccc2)CCC=C[C@H]1N(C)C (relative stereo) [Tilidine, trans-2-(dimethylamino)-1-phenyl-3-cyclohexene-1-carboxylic acid ethyl ester]	0.5 (n = 3) mg/kg
COc1ccc2c3c1O[C@H]1[C@@H](O)C=C[C@H]4[C@@H](C2)N(C)CC[C@@]341 [Codeine (phosphate), (5a,6a)-7,8-didehydro-4,5-epoxy-3-methoxy-17-methylmorphinan-6-ol]	4.7 (n = 3) mg/kg
CCC1(c2cccc(O)c2)CCCCN(C)C1 (stereo not drawn) [Meptazinol, 3-(3-ethylhexahydro-1-methyl-1H-azepin-3-yl)phenol]	1.0 (n = 3) mg/kg

— patent US20040029905A1, “Use of weak opioids and mixed opioid agonists/antagonists for treatment of urinary incontinence” (Gruenenthal GmbH, priority 2000, published 2004)
